Data published in patent EP4464318A1, “TARGETING TGF-B-ACTIVATED KINASE-1 ACTIVATION IN THE TREATMENT OF NEUROINFLAMMATORY CONDITIONS” (Albert-Ludwigs-Universität Freiburg, priority 2023, dated 2024).

Columns and labels:
TAK1 = target: T1, TAK1 (Homo sapiens, UniProt O43318); details: cited from earlier work
T1 sequence (O43318 1-606): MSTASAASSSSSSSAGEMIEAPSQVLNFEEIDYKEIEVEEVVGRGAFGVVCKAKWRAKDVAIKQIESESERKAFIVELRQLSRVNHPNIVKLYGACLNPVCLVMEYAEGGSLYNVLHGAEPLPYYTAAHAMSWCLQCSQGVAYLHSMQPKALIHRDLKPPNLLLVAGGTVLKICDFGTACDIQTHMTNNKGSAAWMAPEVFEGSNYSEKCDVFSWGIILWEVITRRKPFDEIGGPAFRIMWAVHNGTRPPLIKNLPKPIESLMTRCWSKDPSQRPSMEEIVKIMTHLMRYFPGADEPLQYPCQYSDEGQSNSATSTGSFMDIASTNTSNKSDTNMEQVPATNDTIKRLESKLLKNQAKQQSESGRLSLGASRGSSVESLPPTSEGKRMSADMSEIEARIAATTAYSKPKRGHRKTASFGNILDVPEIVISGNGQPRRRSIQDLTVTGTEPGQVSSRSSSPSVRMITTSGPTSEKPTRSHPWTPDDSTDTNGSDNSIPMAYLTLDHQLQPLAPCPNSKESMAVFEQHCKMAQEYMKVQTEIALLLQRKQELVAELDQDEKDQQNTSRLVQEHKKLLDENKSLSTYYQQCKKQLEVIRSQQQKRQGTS

B-ALL (E2A-PBX1) = assay: Tumor burden and myeloid cells in spleen and BM of B-ALL bearing mice on CSF1R inhibitor diet; type: in vivo
Experimental: (§1) Mice received PLX5622 (CSF1R inhibitor) chow or control chow (Research Diets) for 7 days prior to the experiment to achieve microglial depletion. C57BI/6 mice were irradiated with 5.5 Gy and transplanted with 2×10^5 E2A-PBX1 cell lines. 10×10^6 CD19 CAR T were injected on day 7 and behaviour studies were performed on day 10. Mice were maintained on PLX5622 chow or control chow throughout the duration of the experiment. The effectiveness of microglia depletion was determined by flow cytometry.

[1] = system: B-ALL (E2A-PBX1) bearing mice treated with CD19 CAR T cells; assay: BBB leakage (FITC-dextran extravasation) in the CNS; type: in vivo
Experimental: (§2) Mice were treated with either takinib (Selleckchem, Germany) or vehicle after B-NHL or B-ALL transplantation. For the treatment, stocks of 3 mg/ml and 10 mg/ml of takinib were prepared in DMSO. The stocks were diluted in 0.5% carboxymethylcellulose solution (vehicle) and administered by intraperitoneal injection at a dosage of 0.15 mg/kg (takinib-FACS) and 0.5 mg/kg (survival and behaviour studies) per mouse per day from day 3 to day 9 following either B-NHL or B-ALL transplant, as described previously (13a). An equal volume of corresponding vehicles was administrated to the control groups daily from day 3 until day 9. For survival expriments, 0.5 mg/kg takinib or vehicle per mouse per day was administered intraperitonially from day 3 to day 11 following either B-NHL or B -ALL transplant, as described previously.
(§3) The E2A-PBX1 cell line (15a) was provided by Dr. Federico Simonetta (Stanford, USA). C57BI/6 recipients were sublethally irradiated with 5.5 Gy and transplanted with 2×10^5 E2A-PBX1 cells intravenously. […] The mice were perfused with ice cold PBS on day 10 and the CNS was analysed. […]
(§4) Mice received PLX5622 (CSF1R inhibitor) chow or control chow (Research Diets) for 7 days prior to the experiment to achieve microglial depletion. […] The effectiveness of microglia depletion was determined by flow cytometry.

[2] = system: microglia (CD45lo CD11b+); assay: Microglial depletion: flow cytometry of CNS cells of B-ALL bearing mice; type: in vivo
Experimental: as §1
(§5) The CNS cells were isolated as described previously (20a) with modifications. Briefly, the mice were anesthetized and were perfused with 1X cold PBS. The CNS was isolated, homogenized and filtered through a 70 µm nylon filter. The homogenate was suspended in 37% isotonic Percoll solution and centrifuged at 800 × g for 30 min without a break in application. The myelin layer was removed from the top of 37% Percoll and the pelleted cells were washed with 1X PBS for further analysis.

[3] = system: B-ALL (E2A-PBX1) bearing mice treated with CD19 CAR T cells; assay: Grip strength test; type: in vivo
Experimental: as §2, §3
Mice received PLX5622 (CSF1R inhibitor) chow or control chow (Research Diets) for 7 days prior to the experiment to achieve microglial depletion. […] The effectiveness of microglia depletion was determined by flow cytometry. […]

[4] = system: B-ALL (E2A-PBX1) bearing mice treated with CD19 CAR T cells; assay: Elevated plus maze test; type: in vivo; details: CAR19 T cells, CSF1R inhibitor diet vs control diet, from one week prior to tumor injection (Fig. 4)
Experimental: as §2
(§6) The E2A-PBX1 cell line (15a) was provided by Dr. Federico Simonetta (Stanford, USA). […] The mice were perfused with ice cold PBS on day 10 and the CNS was analysed. […]
as §4
We performed the elevated plus maze test to evaluate the anxiety behaviour in mice as described previously with minor modifications (18a). […] We quantified the time they spent in the open arm in minutes. […]

[5] = system: B-ALL (E2A-PBX1) bearing mice treated with CD19 CAR T cells; assay: Novel object recognition test; type: in vivo; details: CAR19 T cells, CSF1R inhibitor diet vs control diet, from one week prior to tumor injection (Fig. 4)
Experimental: as §2, with “For survival expriments, 0.5 mg/kg takinib or vehicle per mouse per day was administered intraperitonially from day 3 to day 11 following either B-NHL or B -ALL transplant, as described previously.” left out
as §6, §4
Novel object recognition test was performed as described previously with modifications (17a). […] The amount of time spent by the mouse exploring the novel object to the total exploration time is calculated as an index of recognition memory.

B-ALL (E2A-PBX1) cells = assay: Viability of B-ALL (E2A-PBX1) cells, 24h; type: cell-based, murine; details: indicated concentrations of takinib, 24h (Fig. 28b)
[6] = system: microglia (CD45lo CD11b+); assay: Flow cytometry of microglia from the CNS of B-NHL (A20) bearing mice treated with CD19 CAR T cells; type: in vivo
Experimental: as §2
(§7) A20 Luc^+ GFP^+ immortalized murine lymphoma cell lines were used to induce B-NHL in mice. BALB/c recipients were sublethally irradiated with 4.5 Gy and transplanted with 1×10^6 A20 Luc^+ GFP^+ intravenously. 7 days later 10×10^6 syngeneic CD19 CAR T cells generated from BALB/c mice were administered. The mice were perfused with Ice cold PBS on day 10 and CNS was analysed. For survival experiments BALB/c recipients were sublethally irradiated with 4.5 Gy and transplanted intravenously with 1×10^5 A20 Luc^+ GFP^+ cells. Seven days later 5×10^6 syngeneic CD19 CAR T cells from BALB/c mice were administered. Tumor burden was checked by bioluminescence imaging.
as §5

B-NHL (A20) cells [7] = assay: Viability of B-NHL (A20) cells, 24h; type: cell-based, murine; details: indicated concentrations of takinib, 24h (Fig. 28a)
B-NHL (A20) = B-NHL (A20) lymphoma burden in vivo (bioluminescence, CD19+ cells in bone marrow); details: CAR19/takinib vs CAR19/vehicle treated mice (Fig. 8a,b)
Experimental: as §2
as §7, with “Seven days later 5×10^6 syngeneic CD19 CAR T cells from BALB/c mice were administered. Tumor burden was checked by bioluminescence imaging.” left out

[8] = system: B-ALL (E2A-PBX1) bearing mice; assay: Survival of B-ALL (E2A-PBX1) bearing mice that received CD19 CAR T cells; type: in vivo
Experimental: as §2, §6
(§8) For sample size in the murine survival experiments a power analysis was performed. A sample size of at least n=8 per group was determined by 80% power to reach a statistical significance of 0.05 in order to detect an effect size of at least 1.06. Differences in animal survival (Kaplan-Meier survival curves) were analyzed by Mantel Cox test. […]

B-NHL (A20) bearing mice = assay: Survival of B-NHL (A20) bearing mice that received CD19 CAR T cells; type: in vivo
Experimental: as §2
A20 Luc^+ GFP^+ immortalized murine lymphoma cell lines were used to induce B-NHL in mice. […] The mice were perfused with Ice cold PBS on day 10 and CNS was analysed. […]
as §8

[9] = system: NK1.1+, CD45+, CD11b+ and CD3+ cells; assay: Immune cell counts in spleen and BM of B-NHL (A20) bearing mice that received CD19 CAR T cells; type: in vivo; details: takinib i.p. day 3 to day 9 vs vehicle (Fig. 24, 25)
Experimental: as §2
as §7, with “Seven days later 5×10^6 syngeneic CD19 CAR T cells from BALB/c mice were administered. Tumor burden was checked by bioluminescence imaging.” left out

CD19 CAR T cells = assay: T cell markers and T cell viability in co-culture of B-NHL and NT/CD19 CAR T cells; type: cell-based
Experimental: (§9) B-NHL cells were labelled with cell trace violet (Invitrogen) as per the manufacturer's instructions. B-NHL cells and NT or CD19 CAR T cells were cultured with 0:1, 1:1, 1:5 and 1:10 ratios for 16-20h. Post-incubation cells were washed and stained for live dead zombie stain and specific lysis was calculated. For analyzing the expression of T cell markers, B-NHL and NT or CD19 CAR T cells were co-cultured at a ratio of 1:5 for 16-20h and treated with either 10µM of takinib or vehicle.

B-NHL (A20) cells [10] = assay: Co-culture of B-NHL (A20) cells with NT or CD19 CAR T cells in vitro; type: cell-based; details: co-culture E:T 5:1, 10µM takinib or vehicle (Fig. 8c)
Experimental: A20 Luc^+ GFP^+ cells were stained with cell trace violet as per the manufacturer's instructions (Life Technologies). A20 Luc^+ GFP^+ cells and CD19 CAR T cells were incubated at ratios 1:1, 2:1, 5:1, and 10:1 for 16h at 37° C. Following incubation, cells were harvested and stained with live/dead far red fixable viability stain (Invitrogen).
as §9

In the case of `CCCn1c(NC(=O)c2cccc(C(N)=O)c2)nc2ccc(CN3CCCCC3)cc21` [HS-276], the IC50 (TAK1) is listed as 2.3 nM and the Ki (TAK1) is listed as 2.5 nM.
For `COc1ncc(F)cc1CNc1ccc(Cc2c[nH]c3ncc(C)cc23)c(F)n1` [PLX5622], the “Ly6C+ and F4/80+ myeloid cells in the spleen” value (B-ALL (E2A-PBX1); CSF1R inhibitor diet vs control diet (Fig. 22c,d)) was “no impact”, the “lymphoma burden in spleen and BM” value (B-ALL (E2A-PBX1); CSF1R inhibitor prior to CAR19 T cell transfer vs vehicle-treated mice (Fig. 22a,b)) was “did not reduce” and the BBB leakage ([1]; CAR19 T cell-treated mice, CSF1R inhibitor (PLX5622) diet vs control diet (Fig. 23)) was “did not reduce”. For the same compound, the microglia numbers ([2]; PLX5622 diet day -7 to day 10 vs control (Fig. 21b-d)) was “declined”, the “CD45hi, Ly6G+ and Ly6C+ myeloid cells infiltrating the CNS” value ([2]; PLX5622 diet vs control diet (Fig. 21e-g)) was “no significant changes” and the grip strength ([3]; CAR19 T cells, CSF1R inhibitor diet vs control diet (Fig. 4)) was “no difference”. For the same compound, the “neurocognitive deficits, elevated plus maze test” value [4] was “improved neurocognitive deficits” and the “neurocognitive deficits, novel object recognition test” value [5] was “improved neurocognitive deficits”.
In the case of `COCCN1CCN(Cc2ccc(-c3n[nH]c4c3C(=O)c3c(NC(=O)NN5CCOCC5)cccc3-4)cc2)CC1` [RGB-286638 free base], the IC50 (TAK1) is listed as 5 nM.
In the case of `CCCn1/c(=N/C(=O)c2cccc(C(N)=O)c2)[nH]c2ccccc21` [Takinib], the “cell death of B-ALL (E2A-PBX1) cells” value (B-ALL (E2A-PBX1) cells) is reported as “dose-dependent cell death”, the “expression of TNF in microglia” value ([6]; takinib 0.15 mg/kg per mouse per day i.p. day 3 to day 9 vs vehicle (Fig. 6b,c)) is reported as “reduced expression” and the “p38 phosphorylation in microglia” value ([6]; takinib 0.15 mg/kg per mouse per day i.p. day 3 to day 9 vs vehicle (Fig. 6f,g)) is reported as “reduced”. For the same compound, the “expression of GM-CSF in microglia” value ([6]; takinib 0.15 mg/kg per mouse per day i.p. day 3 to day 9 vs vehicle (Fig. 6d,e)) was “reduced expression”, the “p70s6K total protein in microglia” value ([6]; takinib 0.5 mg/kg per mouse per day i.p. day 3 to day 9 vs vehicle (Fig. 6h,i)) was “reduced” and the “BBB leakage in the cortex” value ([1]; B-ALL (E2A-PBX1) bearing mice after CAR19 T cell transfer, takinib vs vehicle (Fig. 6m, 26a)) was “trend towards a lower BBB leakage”. For the same compound, the grip strength ([3]; CAR19 T cells + takinib vs vehicle (Fig. 6l)) was “no difference”, the “cell death of B-NHL (A20) cells” value (B-NHL (A20) cells [7]) was “dose-dependent cell death” and the “B-NHL (A20) lymphoma burden” value (B-NHL (A20)) was “decreased”. The survival ([8]; CAR19/takinib vs CAR19/vehicle, E2a-PBX1 model, 0.5 mg/kg i.p. (Fig. 8f)) was “increased”, the survival (B-NHL (A20) bearing mice; CAR19/takinib vs CAR19/vehicle treated B-NHL bearing mice, 0.5 mg/kg i.p. (Fig. 8d)) was “survived longer” and the “myeloid cell, T cell or NK cell counts in the periphery” value [9] was “did not reduce”. For the same compound, the “markers of cytotoxicity including perforin, CD107a, IFN-y, and TNF” value (CD19 CAR T cells; CD3+ T cells, co-culture 1:5, 10µM takinib or vehicle (Fig. 29a-g)) was “remained unaffected”, the “viability of CAR19 or NT T cells” value (CD19 CAR T cells; co-culture with B-NHL (A20), 10µM takinib or vehicle (Fig. 29h)) was “remained unaffected” and the “cytotoxicity against B-NHL (A20) in vitro” value (B-NHL (A20) cells [10]) was “increased cytotoxicity”.
For `C[C@]12C=CC(=O)C=C1CC[C@@H]1[C@@H]2[C@@H](O)C[C@@]2(C)[C@H]1CC[C@]2(O)C(=O)CO` [prednisolone], the “protective effect of CAR19 T cells against leukemia expansion” value ([8]; B-ALL (E2a-PBX1) bearing mice, prednisolone day 3 to day 9 (Fig. 8g)) was “reduced” and the “protective effect of CAR19 T cells against lymphoma growth” value (B-NHL (A20) bearing mice; B-NHL (A20) bearing mice, prednisolone day 3 to day 9 (Fig. 8e)) was “reduced”.
